Results on 28 molecules are retold here after patent US10611728B2, “Isoindoline compositions and methods for treating neurodegenerative disease” (priority 2014, dated 2020).

One data set is described as follows: Microsomal stability in mouse liver microsomes (MLM). The data set is classed as in vitro ADME. Particulars: half-life in mouse liver microsomes. Here is the method: A first pharmacokinetic study was performed in microsomes of mice mouse liver microsomes, MLM) by a commercial contract research organization. The studies were performed according to Obach, R. S et al. (1997) J. Pharmacol. Exp. Ther., 283: 46-58, which is incorporated herein by reference.
For the molecule `COc1cc(CC[C@@H](C)N2Cc3cc4c(cc3C2)OCO4)ccc1O` [compound 6], the “Mouse liver microsomes, MLM t½” value is listed as 20 min.
The same measure, in the same setting: in the case of `COc1cc2c(cc1OC)CN([C@H](C)CCc1ccc(Cl)c(Cl)c1)C2` [compound 11] it was 61 min.

The data set is the same for the next values; noted with them: mouse, microsomes.
Consider `CC(C)(CCc1ccc(O)c(OC(F)(F)F)c1)N1Cc2c(F)ccc(F)c2C1` [compound 55], for which the “Mouse liver microsomes, MLM t½” value stood at 34 min.
Still for that read-out and setting: in the case of `CC(C)(CCc1ccc(F)cc1)N1Cc2cc3c(cc2C1)OCO3` [compound 36] it was 47 min; in that of `CN(C)C(=O)c1cccc2c1CN(C(C)(C)CCc1ccc(O)c(OC(F)(F)F)c1)C2` [compound 57], 26 min; in that of `CC(C)COc1cc(CCC(C)(C)N2Cc3ccc(S(C)(=O)=O)cc3C2)ccc1O` [compound 87], 86 min.
For the molecule `COc1ccc2c(c1)CN([C@H](C)CCc1ccc(Cl)c(Cl)c1)C2.Cl` [compound 15], the “Mouse liver microsomes, MLM t½” value is on record as 15 min.
As for `COc1cc(CCC(C)(C)N2Cc3cc4c(cc3C2)OCO4)ccc1OCCO` [compound 47], the “Mouse liver microsomes, MLM t½” value was 91 min.
As to `C[C@H](CCc1ccc(F)cc1)N1Cc2cccc(F)c2C1` [compound 21], the “Mouse liver microsomes, MLM t½” value stood at 7 min.
For the molecule `COCCN(C)C(=O)c1cccc2c1CN(C(C)(C)CCc1ccc(O)c(OC)c1)C2` [compound 86], the “Mouse liver microsomes, MLM t½” value is 19 min.
As for `CC(C)(CCc1ccc(O)c(OC(F)(F)F)c1)N1Cc2cccc(F)c2C1` [compound 54], the “Mouse liver microsomes, MLM t½” value is reported as 12 min.
Same read-out and setting: in the case of `COc1cc(CCC(C)(C)N2Cc3cccc(C(=O)N4CCOCC4)c3C2)ccc1O` [compound 80] it was 45 min.
Regarding `CC(C)COc1cc(CCC(C)(C)N2Cc3cccc(C(=O)N4CCOCC4)c3C2)ccc1O` [compound 90], the “Mouse liver microsomes, MLM t½” value came to 9 min.
Same read-out and setting: in the case of `CC(C)(C)Oc1cc(CCC(C)(C)N2Cc3cccc(S(C)(=O)=O)c3C2)ccc1O` [compound 66] it was 10 min; in that of `C[C@H](CCc1ccc(Cl)c(Cl)c1)N1Cc2cc(Cl)c(Cl)cc2C1` [compound 5], 53 min.
Take `CC(C)COc1cc(CCC(C)(C)N2Cc3cccc(C(=O)N(C)C)c3C2)ccc1O` [compound 89]: the “Mouse liver microsomes, MLM t½” value turned out to be 17 min.
Take `COc1cc(CCC(C)(C)N2Cc3cccc(C(=O)NCCN(C)C)c3C2)ccc1O` [compound 78]: the “Mouse liver microsomes, MLM t½” value came to 450 min.
On the same count and under the same terms, in the case of `C[C@H](CCc1ccc(Cl)c(Cl)c1)N1Cc2cccc(F)c2C1` [compound 9] it was 12 min.
Turning to `CN(C)C(=O)c1cccc2c1CN(C(C)(C)CCc1ccc(O)c(OC(C)(C)C)c1)C2` [compound 59], the “Mouse liver microsomes, MLM t½” value is on record as 8 min.
`COc1cc(CC[C@@H](C)N2Cc3cc4c(cc3C2)OCO4)ccc1OCCO` [compound 52]: the “Mouse liver microsomes, MLM t½” value came to 97 min.
With `COc1cc(CCC(C)(C)N2Cc3cccc(F)c3C2)ccc1OCCO` [compound 44], the “Mouse liver microsomes, MLM t½” value is 29 min.
As for `COc1cc(CCC(C)(C)N2Cc3cccc(F)c3C2)ccc1O` [compound 53], the “Mouse liver microsomes, MLM t½” value came out at 21 min.
Consider `CC(C)Oc1ccc(CCC(C)(C)N2Cc3ccc(F)cc3C2)cc1OC(C)C` [compound 42], for which the “Mouse liver microsomes, MLM t½” value was 14 min.
For `CC(C)Oc1ccc(CC[C@@H](C)N2Cc3cc4c(cc3C2)OCO4)cc1OC(C)C` [compound 40], the “Mouse liver microsomes, MLM t½” value was 6 min.
For `CC(=O)N1CCN(C(=O)c2cccc3c2CN(C(C)(C)CCc2ccc(O)c(OCC(C)C)c2)C3)CC1` [compound 92], the “Mouse liver microsomes, MLM t½” value was found to be 7 min.
Take `C[C@H](CCc1ccc(O)c(OC(F)(F)F)c1)N1Cc2cc3c(cc2C1)OCO3` [compound 24]: the “Mouse liver microsomes, MLM t½” value came out at 5 min.
`CC(C)(CCc1ccc(F)cc1)N1Cc2ccc(F)cc2C1` [compound 35]: the “Mouse liver microsomes, MLM t½” value is reported as 9 min.
With `COc1cc(CCC(C)(C)N2Cc3cccc(C(=O)N(C)CCN(C)C)c3C2)ccc1O` [compound 81], the “Mouse liver microsomes, MLM t½” value was found to be 88 min.
